According to US8252832B2, “Kinesin inhibitors as cancer therapeutics” (Novartis AG, priority 2007, dated 2012):
Marks after values point to notes of the source that are not given here.

Legend:
[1] = test system: primary blast cells from AML patients; assay: Cell cycle analysis using propidium iodide staining, AML blasts; assay type: cell-based, human; conditions: 0.2 and 2 nM
Method: Primary blast cells from AML patients were tested for sensitivity to compound IIa as shown below. Frozen AML blasts from peripheral blood were obtained from AllCell LLC. (Emeryville, Calif.). Three frozen vials containing ˜1×10^7 PBMCs were purchased. Peripheral blood mononuclear cells (PBMCs) from three newly diagnosed AML patients with a high percentage of blasts (#06-188, 80%; #06-366, 88%; #06-503, 73%) were cultured for several weeks and treated with the KSP inhibitors. The vials were rapidly thawed and the cells were cultured in Iscove's DMEM supplemented with 10% FBS and the following cytokines all at 10 ng/ml: GM-CSF, G-CSF, SCF, IL-3, and IL-6 (all from R&D Systems). Three assays were performed on the cells as follows: • CellTiter-Glo® assay on AML blasts. PBMCs containing AML blasts were seeded in 96-well plates (5000/well) and treated with various concentrations of the compound IIa (10 pM to 10 nM) for 48 hours before cells survival was measured as described above. GI50 values (nM) were calculated as for cell lines. • Cell cycle analysis using propidium iodide staining. […] The DNA content of the fixed and stained cells was analyzed by the BD FACSCalibur flow cytometer using the CellQuest software. • Colony formation assay in methylcellulose containing medium. […] Colonies were counted under a microscope after 2 weeks. […]

KB8.5 = assay: CellTiter-Glo proliferation, 72 hours; assay type: cell-based; conditions: Homo sapiens; Epidermoid, KB8.5, 72 hours
[2] = test system: KMS-11-luc disseminated disease; assay: KMS-11-luc disseminated disease model, tumor response and survival; assay type: in vivo, mouse
Method: Experiments were performed using immunodeficient SCID-Beige female mice approximately 7-8 weeks old (Charles River Laboratories, Wilmington, Mass.). […] Routine animal care and assurance of welfare were as described above.
Human KMS-11-luc multiple myeloma cells were obtained from the laboratory of Suzanne Trudel at the University of Toronto (Ontario, Canada) and tested to be free of Mycoplasma sp. and murine viruses in the IMPACT1 PCR assay panel (RADIL, University of Missouri, Columbia, Mo.). Prior to our receiving this cell line, it had been stably engineered to express luciferase by retroviral transfection of the pGC-gfp/luc vector. KMS-11-luc cells were grown in Iscove's medium supplemented with 2 mmol/L L-glutamine (Mediatech, Inc., Hemdon, Va.) and 10% fetal bovine serum (JRH Biosciences, catalog #12003-1000M). These cells were grown as suspension cultures, maintained at 37° C. in a humidified atmosphere containing 5% carbon dioxide. Cells were cultured for fewer than 10 passages prior to use. Cells were harvested at approximately 2 million cells/mL, and centrifuged at ˜800×g for 5 minutes at 4° C. and then resuspended in a 1:1 mixture of cold Hank's balanced salt solution (HBSS) and Matrigel™ (Mediatech Inc., catalog #21-021-CV; BD Biosciences, catalog #354234, respectively) at a concentration of 50 million cells/mL for implantation subcutaneously (injection volume of 0.2 mL). Alternatively, for the disseminated disease model, cells were prepared only in cold HBSS at a concentration of 100 million cells/mL for intravenous (i.v.) implantation via the tail vein (injection volume of 0.1 mL).
Compound IIa and SB-715992 (free base) were formulated in 20% Captisol for a dose volume of 8 mL/kg. Doses were adjusted to each animal's body weight.
For the efficacy evaluation in the disseminated disease model, 10 million cells in HBSS were injected i.v. via the tail vein in a total volume of […]. Forty mice were randomized and enrolled on study 10 days post-implant, with a mean photon count in the leg bones (right+left) of approximately 9×10^5 photons/second, as determined by bioluminescence imaging. Approximately 10 minutes prior to imaging, mice were injected i.p. with 150 mg/kg luciferin (Xenogen Corporation, Alameda, Calif.), followed by anesthetization with isoflurane. Photon emission was measured using a charge coupled device camera in the IVIS imaging system (Xenogen Corporation). Briefly, a gray-scale image of the mice was captured, followed by an overlay of a bioluminescence map representing the spatial distribution of photons detected from cleaved luciferin in the cancer cells expressing luciferase. Signal intensity was quantified using a customized version of the IGOR Pro version 4.09A Software (WaveMetrics, Inc., Lake Oswego, Oreg.) called Living Image version 2.50.2 (Xenogen). The sum of all detected photon counts from the right+left legs were determined. Bioluminescence of cancer cells in the animals was measured by imaging on designated days until the first mice developed hind limb paralysis due to disease burden, the main end point for when to humanely euthanize mice. The day of euthanasia for each mouse was recorded, and the remaining percentage of mice surviving was plotted over time (Kaplan-Meier survival analysis). P values were calculated using the log-rank test (GraphPad Prism 4.0 software) to assess differences between treated and control groups (p<0.05 was considered significant). […] Data analysis was as described above.

CC(C)(C)[C@H](c1nc(-c2cc(F)ccc2F)cn1Cc1ccccc1)N(CC[C@H](N)CF)C(=O)CO [Compound IIa]
cell cycle profile, 4N population ([1]; sample #06-366, 24 hours): increase in the number of cells arrested in mitosis | cell cycle profile, <2N population ([1]; sample #06-366, 48 hours): increase in the number of dying cells | GI50 (KB8.5): 0.5 nM | T/C, Day 13 (%) ([2]; 0.25 mg/kg, q4d × 3, i.v): 15% | Δ Tumor Bioluminescence, Day 13 ([2]; 0.25 mg/kg, q4d × 3, i.v): 2.2 × 10^7 ± 1.1 × 10^6 photons/sec | Mean Day of Survival ([2]; 0.25 mg/kg, q4d × 3, i.v., listed as COMPOUND IIa): 29** day | Mean Day of Survival ([2]; 0.25 mg/kg, q4d × 3, i.v., listed as compound IIa): 29 days | T/C, Day 13 (%) ([2]; 0.5 mg/kg, q4d × 3, i.v): 0.7* % | Δ Tumor Bioluminescence, Day 13 ([2]; 0.5 mg/kg, q4d × 3, i.v): 1.1 × 10^6 ± 5.8 × 10^5 photons/sec | Mean Day of Survival ([2]; 0.5 mg/kg, q4d × 3, i.v., listed as COMPOUND IIa): 35** day | Mean Day of Survival ([2]; 0.5 mg/kg, q4d × 3, i.v., listed as compound IIa): 35 days | Regression, Day 13 (%) ([2]; 1 mg/kg, q4d × 3, i.v.): 47% | Δ Tumor Bioluminescence, Day 13 ([2]; 1 mg/kg, q4d × 3, i.v.): −4.3 × 10^5 ± 1.7 × 10^5 photons/sec | Mean Day of Survival ([2]; 1 mg/kg, q4d × 3, i.v., listed as COMPOUND IIa): 52** day | Mean Day of Survival ([2]; 1 mg/kg, q4d × 3, i.v., listed as compound IIa): 52 days
